From PMC11753601 (Angewandte Chemie (International Ed. in English), 2024)

Tested on: E-Box DNA
Assay type: binding
Conditions: pH 8

## (AcATEENVKRRTHNVLERQRRNELKRSSCFA)2-Linker (sidechain bridge or staple) [MiniMYC 3]
  Binding to E-Box DNA in EMSA (in words): did not show any specific association

## (AcATEENVKRRTHNVLERQRRNELKRSFFG)2K (sidechain bridge or staple) [MiniMYC 1]
  Binding to E-Box DNA in EMSA (in words): no binding

## (AcVKRRTHNVLERQRRNELKRSFFALRDQIPELENNEKAPKVVILKKATAYILSAβC)2-linker (sidechain bridge or staple) [DuoMYC 7]
read-out: KD for E-Box DNA measured by EMSA
  Kd: ~174 nM
